Reference: US20210094933A1, “RAPAFUCIN DERIVATIVE COMPOUNDS AND METHODS OF USE THEREOF” (The Johns Hopkins University, priority 2019, published 2021)
In brackets after ≈: the same amount, converted by molar mass. Where two headings read alike, the source gives them in different places.

Assays:
[1] = Nucleoside uptake assay, single concentration (Rel.Uptake), response relative to DMSO; cell line indicated in each table; type: cell-based; details: 293 T cells, nucleoside uptake at single concentration
Sprague Dawley Rats = assay: Rat Renal Ischemia-Reperfusion model; type: in vivo; details: compound given 30 min prior to right nephrectomy and left renal clamping, 24 hours of reperfusion
Description: Briefly, Sprague Dawley Rats were treated test compound 30 min prior to a right nephrectomy and with underwent clamping of the left renal clamping for 15 mins. After 24 hours of reperfusion, blood was collected to measure biomarkers for kidney damage and the kidney was removed for histology. […] SHAM indicates an animal group with right nephrectomy without ischemic injury. VE indicates vehicle. DPA indicates dipyridamole administered in a dosage of 10 mg/kg. Compound 1593 was administered at a high dosage (12 mg/kg) or a low dosage (4 mg/kg). Compound 1594 was administered at 4 mg/kg.

293T = assay: Nucleoside uptake assay (3H-Thymidine), IC50 relative to DMSO control; type: cell-based; details: 293T cells; Table 17
[2] = Aqueous solubility in PBS solution; type: physicochemical; details: aqueous buffer
Description: Compound 1593 is synthesized according to Scheme 42. The aqueous solubility of compound 1593 and its counterpart structure without carboxylic acid substitutent, compound 1594, is shown in Table 18. Without the carboxylic acid substitutent, compound 1594 merely has a solubility of about 0.1 mg/mL in PBS solution.

[3] = read-out: solubility in PBS solution

Row | SMILES | Rel. Uptake, 293 T [1] | efficacy in Rat Renal Ischemia-Reperfusion model (Sprague Dawley Rats) | IC50 (293T) [nM] | solubility ([2]; PBS, read-out: Solubility) [µg/mL] | solubility [2, 3] [µg/mL]
1 | COc1ccc(CC[C@H]2OC(=O)[C@@H]3CCCCN3C(=O)C(=O)C(C)(C)COC(=O)/C=C/CCN(C)C(=O)[C@H](CC(C)C)N(C)C(=O)[C@H]3CCCN3C(=O)[C@H](Cc3ccc(OCC(=O)O)cc3)NC(=O)[C@H](c3ccccc3)NC(=O)CCC(=O)Nc3cccc2c3)cc1OC [Compound 1593] | High (“High” indicates a response less than 0.3 times the activity relative to DMSO) | efficacious | < 300 | 3500 (≈ 2700 µM) | ~3500 (≈ 2700 µM)
2 | COc1ccc(CC[C@H]2OC(=O)[C@@H]3CCCCN3C(=O)C(=O)C(C)(C)COC(=O)/C=C/CCN(C)C(=O)[C@H](CC(C)C)N(C)C(=O)[C@H]3CCCN3C(=O)[C@H](Cc3ccccc3)NC(=O)[C@H](c3ccccc3)NC(=O)CCC(=O)Nc3cccc2c3)cc1OC [Compound 1594] | Low (“Low” indicates a response greater than 0.6 times the activity relative to DMSO) | efficacious | – | > 100 | ~100 (≈ 81.7 µM)
